# Laboratory results reported in patent US11685710B2, “Cationic sulfonamide amino lipids and amphiphilic zwitterionic amino lipids” (The Board of Regents of the University of Texas System, priority 2016, dated 2023).
# Test system: IGROV1 cells
# Experiment: mRNA delivery in vitro assay (luciferase / mCherry mRNA)
# Assay type: cell-based, human
# Procedure: ZAL mRNA delivery in vitro assay: ZAL nanoparticles with firefly luciferase mRNA (Tri-Link Biotechnologies) were prepared using the in vitro nanoparticle formulation method outlined above. IGROV1 cells were seed in white opaque 96-well tissue culture plates at a seeding density of 5×10^3 cells per well in 100 μL RPMI 1640 medium supplemented with 5% FBS, and allowed to attach overnight. After overnight incubation, and additional 100 μL medium was added to the wells. The ZAL:mRNA nanoparticles were prepared at a ZAL:mRNA weight ratio of 20:1, 10:1, 7.5:1 and 5:1, and lipid mixture molar compositions of 50:38.5 ZAL:cholesterol, with PEG lipid supplemented at a molar ratio of 5%, 2%, 1% or 0.5% at each weight ratio. The ZAL-mRNA nanoparticles were added to the cells at a dose of 100 ng mRNA per well and incubated for the indicated time (ranging from 6 h to 48 h), after which time cell viability and luciferase expression were evaluated with the ONE-Glo+Tox Assay cell viability and luciferase assay (Promega) and normalized to untreated cells (N=4+/−standard deviation)
# ZNPs with mRNA (Tri-Link Biotechnologies) were prepared using the in vitro nanoparticle formulation method outlined above. IGROV1 cells were seeded in white opaque 96-well tissue culture plates at a seeding density of 5×10^3 cells per well in 100 μL RPMI 1640 medium supplemented with 5% FBS, and allowed to attach overnight. After overnight incubation, an additional 100 μL medium was added to the wells. The ZAL:mRNA nanoparticles were prepared at ZAL:mRNA weight ratios of 20:1, 10:1, 7.5:1 and 5:1, and lipid mixture molar compositions of 50:38.5:n ZAL:cholesterol:PEG-lipid, where n=5, 2, 1, and 0.5 at each weight ratio. The ZAL-mRNA nanoparticles were added to the cells at the appropriate mRNA dose and incubated for the indicated time (ranging from 6 h to 48 h), after which time cell viability and luciferase expression were evaluated with the ONE-Glo+Tox Assay (Promega) and normalized to untreated cells (N=4+/−standard deviation).
smiles,measurement,setting,value
CCCCCCCCC(O)CN(CCC(=O)NCC[N+](C)(C)CCCS(=O)(=O)[O-])CCN(CCN(CC(O)CCCCCCCC)CC(O)CCCCCCCC)CCN(CC(O)CCCCCCCC)CC(O)CCCCCCCC (stereo not shown) [ZA3-Ep10],delivery efficacy of mRNA versus PEG lipid ratio,"PEG-lipid 5, 2, 1 or 0.5 in lipid mix",decreased with higher PEG lipid ratios
same,luciferase expression versus mRNA dose,"luciferase mRNA (~2,000 nt), IGROV1 cells",dose-dependent
same,mRNA dose required for high expression,"luciferase mRNA, IGROV1 cells",< 600 pM
same,mCherry expression,"mCherry mRNA (~1,000 nt), IGROV1 cells",Bright mCherry expression
